Data set [1] can be described thus: Kinetic solubility determination (high throughput). The format is physicochemical. The settings on record: kinetic from dmso stock, sterile water, 5% DMSO, room temperature. As to the method:
Test compounds (10 μL; 20 mM DMSO solution) were added to sterile water (190 μL) in triplicate and shaken at 300 rpm at room temperature. After 90 min. the test compounds were filtered by centrifuge (5 min. at 3000 rpm) to obtain the aqueous filtrate. Acetonitrile (20 μL) was dispensed into clean 96-well UV/VIS analysis plate and aqueous filtrate (80 μL) added and the plate analysed for test compound concentration using a Molecular Devices SPECTRAmax® plus microplate reader at the following wavelengths: (280, 300, 320, 340, 360, 800 nm). […] The diluted filtrate (80 μL) was then added to acetonitrile (20 μL) and the plate analysed. as previously.

Data set [2] concerns the target T1, human TMEM16A (TMEM16Aabc variant) (Homo sapiens, UniProt Q5XXA6, DEL476-501).
T1 sequence (Q5XXA6 with tags, fused parts or gaps isoform Q5XXA6-5 DEL539-564): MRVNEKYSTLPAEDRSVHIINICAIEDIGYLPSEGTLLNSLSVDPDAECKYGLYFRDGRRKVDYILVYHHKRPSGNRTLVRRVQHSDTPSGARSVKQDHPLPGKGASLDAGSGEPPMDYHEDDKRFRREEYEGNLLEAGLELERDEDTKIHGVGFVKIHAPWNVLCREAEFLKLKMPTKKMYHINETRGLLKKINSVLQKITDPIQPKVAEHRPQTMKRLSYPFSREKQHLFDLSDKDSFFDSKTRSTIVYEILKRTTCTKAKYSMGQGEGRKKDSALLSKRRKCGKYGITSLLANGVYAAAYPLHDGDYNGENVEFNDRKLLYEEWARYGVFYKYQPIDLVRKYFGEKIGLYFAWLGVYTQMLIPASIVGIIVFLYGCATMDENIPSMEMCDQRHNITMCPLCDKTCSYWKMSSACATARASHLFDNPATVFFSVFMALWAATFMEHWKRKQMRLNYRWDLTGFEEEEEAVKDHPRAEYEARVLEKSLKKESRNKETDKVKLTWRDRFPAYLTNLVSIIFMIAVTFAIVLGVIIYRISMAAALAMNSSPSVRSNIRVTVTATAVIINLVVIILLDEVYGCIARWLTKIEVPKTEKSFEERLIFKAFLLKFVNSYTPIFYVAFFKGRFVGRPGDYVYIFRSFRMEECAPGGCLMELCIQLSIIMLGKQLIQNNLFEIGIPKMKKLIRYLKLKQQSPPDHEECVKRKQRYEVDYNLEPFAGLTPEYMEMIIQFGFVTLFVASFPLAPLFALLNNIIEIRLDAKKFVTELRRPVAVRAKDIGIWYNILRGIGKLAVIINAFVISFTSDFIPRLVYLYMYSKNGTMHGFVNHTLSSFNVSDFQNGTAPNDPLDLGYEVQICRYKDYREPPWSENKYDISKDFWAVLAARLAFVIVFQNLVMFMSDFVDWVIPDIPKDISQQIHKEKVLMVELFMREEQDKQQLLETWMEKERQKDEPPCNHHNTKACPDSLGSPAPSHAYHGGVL
Nature of the data set: Automated whole-cell patch clamp (Qpatch) TMEM16A potentiator assay in recombinant FRT cells. Type of data set: cell-based. To be noted: for activation at 3.33 µM: percentage increase of baseline TMEM16A current, minimum n = 2, read-out: % Potentiation @ 3.33 uM Avg; for EC50: minimum n = 2. A digest of the protocol:
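FRT cells stably expressing human TMEM16Aabc, whole-cell automated patch clamp with intracellular Ca2+ buffered for ~20% maximal current (EC20). Held at −70 mV, step to +70 mV/ramp at 0.05 Hz, cumulative compound additions of 5 min each. Peak +70 mV current increase expressed as % potentiation of baseline.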

≈ marks a conversion by molar mass, not a printed value.

For orientation: kinetic solubility means solubility judged after dilution from a stock solution rather than from solid. As a reminder, the EC50 is the concentration giving half of the maximal effect.

As to `CC(C)(C#N)NC(=O)c1cc(NC(=O)Cc2ccc(C(C)(C)C)c(O)c2)ccn1` [93.4 of PCT/GB2019/050209, reference compound], the kinetic solubility at 90 min in data set [1] came out at 37 µg/mL (≈ 93.8 µM). In addition, in data set [2], the activation at 3.33 µM worked out at 476% and the 50% effective concentration (EC50) amounted to 64 nM.
On the same counts, the results for `O=C(Cc1cc(O)c(C2(CO)CCC2)cc1F)Nc1ccnc(C(=O)NC2(C(F)(F)F)CC2)c1` [Example 2.13, 4-[[2-[2-Fluoro-5-hydroxy-4-[1-(hydroxymethyl)cyclobutyl]phenyl]acetyl]amino]-N-[1-(trifluoromethyl)cyclopropyl]pyridine-2-carboxamide] are 67 µg/mL (≈ 139 µM), 339% and 37 nM.
In data set [1], `CC(C)(CO)c1cc(Cl)c(CC(=O)Nc2ccnc(C(=O)NC3(C(F)F)CC3)c2)cc1O` [Example 15.3, 4-[[2-[2-Chloro-5-hydroxy-4-(2-hydroxy-1,1-dimethyl-ethyl)phenyl]acetyl]amino]-N-[1-(difluoromethyl)cyclopropyl]pyridine-2-carboxamide] returned a solubility (kinetic) at 90 min of 164 µg/mL (≈ 351 µM). In addition, in data set [2], the activation at 3.33 µM came to 250% and the EC50 came to 36 nM.
On the same counts, the results for `CC(C)(CO)c1cc(F)c(CC(=O)Nc2ccnc(C(=O)NC3(C(F)(F)F)CC3)c2)cc1O` [Example 2.6, 4-[[2-[2-Fluoro-5-hydroxy-4-(2-hydroxy-1,1-dimethyl-ethyl)phenyl]acetyl]amino]-N-[1-(trifluoromethyl)cyclopropyl]pyridine-2-carboxamide] are 142 µg/mL (≈ 302 µM), 270% and 30 nM.
On the same counts, the results for `CCC(C)(O)c1cc(F)c(CC(=O)Nc2ccnc(C(=O)NC3(C(F)(F)F)CC3)c2)cc1O` (centres unmarked) [Example 2.11, 4-[[2-[2-Fluoro-5-hydroxy-4-(1-hydroxy-1-methyl-propyl)phenyl]acetyl]amino]-N-[1-(trifluoromethyl)cyclopropyl]pyridine-2-carboxamide] are 116 µg/mL (≈ 247 µM), 390% and 64 nM.
In turn, `CC(C#N)NC(=O)c1cc(NC(=O)Cc2cc(O)c(C(C)(C)C)cc2F)ccn1` (centres unmarked) [Example 1.3] returned a solubility (kinetic) at 90 min in data set [1] of 35 µg/mL (≈ 87.8 µM). In data set [2], the activation at 3.33 µM amounted to 380% and the concentration for a half-maximal effect (EC50) turned out to be 104 nM.
Consider `CC(C)(C)NC(=O)c1cc(NC(=O)Cc2cc(O)c(C(C)(C)C)cc2F)ccn1` [91 of PCT/GB2019/050209, reference compound], for which the kinetic solubility at 90 min in data set [1] turned out to be 10 µg/mL (≈ 24.9 µM). In addition, the concentration giving a half-maximal response (EC50) in data set [2] was found to be 55 nM.
Turning to `CC(C)(CCO)c1cc(F)c(CC(=O)Nc2ccnc(C(=O)NC3(C(F)(F)F)CC3)c2)cc1O` [Example 11, 4-[[2-[2-Fluoro-5-hydroxy-4-(3-hydroxy-1,1-dimethyl-propyl)phenyl]acetyl]amino]-N-[1-(trifluoromethyl)cyclopropyl]pyridine-2-carboxamide], in data set [1], the kinetic solubility at 90 min was determined as 120 µg/mL (≈ 248 µM). Further, in data set [2], the activation at 3.33 µM came out at 208% and the concentration for a half-maximal effect (EC50) turned out to be 43 nM.
On the same counts, the results for `Cc1cc(C(C)(C)CO)c(O)cc1CC(=O)Nc1ccnc(C(=O)NC2(C(F)(F)F)CC2)c1` [Example 14.1, 4-[[2-[5-Hydroxy-4-(2-hydroxy-1,1-dimethyl-ethyl)-2-methyl-phenyl]acetyl]amino]-N-[1-(trifluoromethyl)cyclopropyl]pyridine-2-carboxamide] are 154 µg/mL (≈ 331 µM), 233% and 45 nM.
On the same counts, the results for `O=C(Cc1cc(O)c(C(CO)C(F)(F)F)cc1F)Nc1ccnc(C(=O)NC2(C(F)(F)F)CC2)c1` (centres unmarked) [Example 17, 4-[[2-[2-Fluoro-5-hydroxy-4-[2,2,2-trifluoro-1-(hydroxymethyl)ethyl]phenyl]acetyl]amino]N-[1-(trifluoromethyl)cyclopropyl]pyridine-2-carboxamide] are 292 µg/mL (≈ 573 µM), 374% and 93 nM.
On the same counts, the results for `CC(C)(O)c1cc(F)c(CC(=O)Nc2ccnc(C(=O)NC3(C(F)(F)F)CC3)c2)cc1O` [Example 2, 4-[[2-[2-Fluoro-5-hydroxy-4-(1-hydroxy-1-methyl-ethyl)phenyl]acetyl]amino]-N-[1-(trifluoromethyl)cyclopropyl]pyridine-2-carboxamide] are 152 µg/mL (≈ 334 µM), 243% and 64 nM.
Turning to `CC(C)(CO)c1cc(Cl)c(CC(=O)Nc2ccnc(C(=O)NC3(C(F)(F)F)CC3)c2)cc1O` [Example 14, 4-[[2-[2-Chloro-5-hydroxy-4-(2-hydroxy-1,1-dimethyl-ethyl)phenyl]acetyl]amino]-N-[1-(trifluoromethyl)cyclopropyl]pyridine-2-carboxamide], the solubility (kinetic) at 90 min in data set [1] came to 90 µg/mL (≈ 185 µM). In data set [2], the activation at 3.33 µM came out at 490% and the EC50 turned out to be 33 nM.

The record behind these values is patent publication US20220235006A1, “PYRIDINE DERIVATIVES AS TMEM16A MODULATORS FOR USE IN THE TREATMENT OF RESPIRATORY CONDITIONS” (TMEM16A LIMITED, priority 2019, published 2022).
